Consider six compounds from patent US20070197523A1, “CALCIUM CHANNEL ANTAGONISTS” (ICAGEN, INC., priority 2005, published 2007).

For this assay, the system named is T-type calcium channels. Description: T-type calcium channel inhibitory activity (fluorometric FLIPR Fluo-4 and whole cell patch clamp). The format is cell-based, mammalian. Conditions: inhibition of T-type calcium channels; cells natively expressing or HEK-293 cells expressing recombinant channels. Here is the method:
T-type calcium channel inhibitory activity of some compounds of the invention was evaluated using both fluorometric as well as electrophysiological measurement methodologies, which are known to those skilled in the art. Fluorescence measurement of changes in intracellular calcium due to entry of calcium through T-type calcium channels was assessed using calcium sensitive fluorescent dyes Fluo-4 and Fluo-3. In brief, cells natively expressing T-type channels or HEK-293 cells transiently or stably expressing recombinant mammalian T-type calcium channels grown in 96-well tissue culture plates in DMEM/High glucose, Hyclone, Fetal Bovine Serum (10%), and 2 mM sodium pyruvate 2 mM (and for cells lines recombinantly expressing T-type calcium channels, G418 @ 400 mg/liter) were loaded with 4 μM Fluo-4 made up in Earls Balanced Salt Solution (EBSS). After incubation for 30 minutes at room temperature, cells were washed with low calcium (0.5 mM) EBSS to remove extracellular Fluo-4. Baseline fluorescence was measured in a FLIPR (FLuorescence Image Plate Reader) (Molecular Devices Inc) after applying test compounds at desired concentration for 5-10 minutes. The effect of test compound on calcium entry was assessed by monitoring changes in Fluo-4 fluorescence following an elevation of extracellular calcium concentration from 0.5 mM to 5 mM. […] Native cells natively expressing T-type channels or HEK-293 cells transiently or stably expressing recombinant mammalian T-type calcium channels were grown in DMEM/High glucose, Hyclone, Fetal Bovine Serum (10%), 2 mM sodium pyruvate 2 mM (and for cells lines recombinantly expressing T-type calcium channels, G418 @ 400 mg/liter) on glass coverslips in 35 mm tissue culture dishes. Experiments were performed by placing T-type calcium channels expressing cells in a recording chamber perfused with EBSS (which contains (in mM): 132 NaCl, 5.4 KCl, 1.8 CaCl2, 0.8 MgCl2, 10 Hepes, 5 glucose, pH 7.4 with NaOH) on the stage of an inverted microscope. Electrical currents were measured using the whole cell configuration of the patch clamp technique (Axopatch 200B, Axon Instruments (Molecular Devices) (see Hamill et al (1981) Pflugers Arch. 1981 391:85-100) using 2-2.5 MOhm resistance glass pipettes filled with 135 CsF, 5 CsCl, 5 NaCl, 5 EGTA, 10 HEPES, pH 7.3 with CsOH, Osmolarity ˜288 mOsm. Test compound effects were typically assessed under conditions in which approximately half of the available channels were inactivated either by an 8 second conditioning depolarization from a holding potential of −100 mV to a potential ranging from −70 mV to −60 mV or by continually holding the membrane potential at −70 mV. Test compounds were assessed for their ability to reduce the amplitude of the inward T-type calcium current elicited by a 100 ms step depolarization −20 or −30 mV.

A word on the IC50: it is the concentration that inhibits the measured activity by half.

Each structure is given as a SMILES string.

Consider `CCOc1cccc(S(=O)(=O)c2cnc(Nc3cc(NCCN4CCCC4)nc(C)n3)s2)c1` [Example 9, N-[5-(3-ethoxy-benzenesulfonyl)-thiazol-2-yl]-2-methyl-N′-(2-pyrrolidin-1-yl-ethyl)-pyrimidine-4,6-diamine], for which the IC50 is 0.001 to 1 µM.
With `CCOc1cccc(S(=O)(=O)c2cnc(Nc3cc(C#CC(C)(C)N(C)C(=O)OC(C)(C)C)nc(C)n3)s2)c1` [Example 31, (3-{6-[5-(3-Ethoxy-benzenesulfonyl)-thiazol-2ylamino]-2-methyl-pyrimidin-4-yl}-1,1-dimethyl-prop-2-ynyl)-methyl-carbamic acid tert-butyl ester] the figure was 0.001 to 1 µM.
With `CCOc1cccc(S(=O)(=O)c2cnc(Nc3cc(N(C)CCOC)ncn3)s2)c1` [Example 5, N-[5-(3-Ethoxy-benzenesulfonyl)-thiazol-2-yl]-N′-(2-methoxy-ethyl)-N′-methyl-pyrimidine-4,6-diamine] the figure was 1 to 10 µM; with `CCOc1cccc(S(=O)(=O)c2cnc(Nc3cc(NCCN(C)C)nc(C(F)(F)F)n3)s2)c1` [Example 19, N-(2-Dimethylamino-ethyl)-N′-[5-(3-ethoxy-benzenesulfonyl)-thiazol-2-yl]-2-trifluoromethyl-pyrimidine-4,6-diamine], 0.001 to 1 µM; with `CCOc1cccc(S(=O)(=O)c2cnc(N(CCCN3CCOCC3)c3nc(C)nc(NCCOC)c3F)s2)c1` [Example 15, N-[5-(3-ethoxy-benzenesulfonyl)-thiazol-2-yl]-5-fluoro-N′-(2-methoxy-ethyl)-2-methyl-N-(3′-morpholin-4-yl-propyl)-pyrimidine-4,6-diamine], 0.001 to 1 µM.
As for `CCOc1cccc(S(=O)(=O)c2cnc(Nc3cc(NCC(C)(C)N)nc(C)n3)s2)c1` [Example 6, N-(2-Amino-2-methyl-propyl)-N′-[5-(3-ethoxy-benzenesulfonyl)-thiazol-2-yl]-2-methyl-pyrimidine-4,6-diamine], the IC50 fell in the range of 0.001 to 1 µM.
